Results published in patent US11046697B2, “Compounds and compositions useful for treating disorders related to NTRK” (BLUEPRINT MEDICINES CORPORATION, priority 2015, dated 2021).
Read-outs that look alike come from different tables or passages of the source.

Legend:
wild type NTRK1 enzyme = target: T1, wild type NTRK1 enzyme (Homo sapiens, UniProt P04629); assay: NTRK1 Wild Type Assay at 1 mM ATP; format: biochemical
T1 construct: purchased BPS Bioscience 40280
Protocol: NTRK1 Wild Type Assay at 1 mM ATP
The reaction was stopped by the addition of 70 μL of Stop buffer (100 mM HEPES pH 7.5, 0.015% Brij 35, 35 mM EDTA and 0.2% of Coating Reagent 3 (Caliper Lifesciences)). The plate was then read on a Caliper EZReader 2 (protocol settings: −1.7 psi, upstream voltage −500, downstream voltage −3000, post sample sip 35s).

[1] = system: KM12 Cliff (G595R) cell line; assay: NTRK G595R mutant cellular assay (CellTiter-Glo growth inhibition); format: cell-based; conditions: for IC50: 72 hr, CellTiter-Glo
Procedure, shortened: (§1)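 KM12 (TPM3-NTRK1 fusion) or KM12 Cliff (G595R) cells at 1000 cells/well in 10% FBS media were dosed with compounds at varying concentrations in duplicate after overnight plating.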

[2] = system: KM12 wild type colon carcinoma cell line harboring the TPM3-NTRK1 fusion protein; assay: NTRK wild type cellular assay (CellTiter-Glo growth inhibition); format: cell-based; conditions: for IC50: 72 hr, CellTiter-Glo, read-out: KM12 (WT) IC50
Procedure, shortened: as §1

[3] = 1 mM ATP, read-out: Enz NTRK1 IC50

T1 sequence (P04629 440-796 limits assumed): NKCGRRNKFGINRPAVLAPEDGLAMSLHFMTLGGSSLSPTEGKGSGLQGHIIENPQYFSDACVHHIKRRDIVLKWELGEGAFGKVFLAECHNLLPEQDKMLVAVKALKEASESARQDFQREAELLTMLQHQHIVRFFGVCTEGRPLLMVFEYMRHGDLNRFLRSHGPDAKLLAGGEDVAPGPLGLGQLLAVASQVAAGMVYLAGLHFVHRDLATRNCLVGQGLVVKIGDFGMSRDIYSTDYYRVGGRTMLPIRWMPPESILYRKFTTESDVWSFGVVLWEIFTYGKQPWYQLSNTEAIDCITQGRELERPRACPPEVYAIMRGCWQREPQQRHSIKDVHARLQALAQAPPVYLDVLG

| IC50 (wild type NTRK1 enzyme; [3]) [nM] | IC50 [2] [nM] | IC50 ([2]; Homo sapiens, KM12, 72 h) [nM] | IC50 (wild type NTRK1 enzyme; wild-type NTRK enzyme, read-out: NTRK wt Enzyme Assay IC50) [nM] | GI50 ([2]; wild-type NTRK fusion cells, read-out: NTRK wt Cellular GI50) [nM] | Structure (SMILES) | IC50 [1] [nM] | IC50 ([1]; Homo sapiens, KM12, 72 h) [nM] | GI50 ([1]; G595R mutant NTRK fusion cells) [nM] |
| --- | --- | --- | --- | --- | --- | --- | --- | --- |
| < 10 | < 10 |  |  |  | O=C(c1n[nH]c2ncnc(NC3CCCC(O)C3O)c12)N1CC(F)CC1c1cc(F)ccc1OC(F)(F)F (stereo not drawn) [Compound 243] | < 10 |  |  |
| < 10 |  | < 10 |  |  | O=C(c1n[nH]c2ncnc(N[C@@H]3COC[C@@H](O)[C@H]3O)c12)N1C[C@@H](F)C[C@@H]1c1cc(F)ccc1OC(F)(F)F [Compound 244] |  | < 10 |  |
|  |  |  | 2.3 | 32 | CC(C)NC(=O)C1CCC(n2c(NC(=O)c3ccc(F)cc3)nc3ccc(CN4CCC(C(C)(C)O)CC4)cc32)CC1 (stereo not drawn) [TSR-011] |  |  | 12000 |

More lines, now with the values behind:

| Structure (SMILES) | IC50 (wild type NTRK1 enzyme; [3]) [nM] | IC50 [2] [nM] | IC50 ([2]; Homo sapiens, KM12, 72 h) [nM] | IC50 (wild type NTRK1 enzyme; wild-type NTRK enzyme, read-out: NTRK wt Enzyme Assay IC50) [nM] | GI50 ([2]; wild-type NTRK fusion cells, read-out: NTRK wt Cellular GI50) [nM] | IC50 [1] [nM] | IC50 ([1]; Homo sapiens, KM12, 72 h) [nM] | GI50 ([1]; G595R mutant NTRK fusion cells) [nM] |
| --- | --- | --- | --- | --- | --- | --- | --- | --- |
| O=C(c1n[nH]c2ncnc(N[C@H]3[C@H](O)[C@H](O)[C@@H]4C[C@@H]43)c12)N1C[C@@H](F)C[C@@H]1c1cc(F)ccc1OC(F)F [Compound 239] | < 10 | < 10 |  |  |  | 10 to 100 |  |  |
| O=C(c1n[nH]c2ncnc(N[C@@H]3CC[C@@H](O)[C@H]3O)c12)N1C[C@@H](F)C[C@@H]1c1cc(F)ccc1OC(F)(F)F [Compound 240] | < 10 |  | < 10 |  |  |  | < 10 |  |
| O=C(c1n[nH]c2ncnc(NC3CCOCC3O)c12)N1CC(F)CC1c1cc(F)ccc1OC(F)(F)F (stereo not drawn) [Compound 241] | < 10 | < 10 |  |  |  | < 10 |  |  |
| O=C(c1n[nH]c2ncnc(N[C@H]3[C@H](O)[C@H](O)[C@@H]4C[C@@H]43)c12)N1C[C@@H](F)C[C@@H]1c1cc(F)ccc1OC(F)(F)F [Compound 242] | < 10 | < 10 |  |  |  | < 10 |  |  |
